ChEMBL document CHEMBL4007491, “Structure-based drug design of novel ASK1 inhibitors using an integrated lead optimization strategy” (Bioorg Med Chem Lett, 2017)
≈ marks a conversion by molar mass, not a printed value.

How the values were obtained:
[1] = target: Receptor tyrosine-protein kinase erbB-4 (Homo sapiens, UniProt Q15303); assay: Inhibition of recombinant human N-terminal GST-tagged ERBB4 cytoplasmic domain (708 to 993 residues) expressed in baculovirus expression system
[2] = target: Glycogen synthase kinase-3 beta (Homo sapiens, UniProt P49841); assay: Inhibition of recombinant full length human His-tagged GSK3B expressed in baculovirus expression system
Sequence of Glycogen synthase kinase-3 beta (P49841 whole entry): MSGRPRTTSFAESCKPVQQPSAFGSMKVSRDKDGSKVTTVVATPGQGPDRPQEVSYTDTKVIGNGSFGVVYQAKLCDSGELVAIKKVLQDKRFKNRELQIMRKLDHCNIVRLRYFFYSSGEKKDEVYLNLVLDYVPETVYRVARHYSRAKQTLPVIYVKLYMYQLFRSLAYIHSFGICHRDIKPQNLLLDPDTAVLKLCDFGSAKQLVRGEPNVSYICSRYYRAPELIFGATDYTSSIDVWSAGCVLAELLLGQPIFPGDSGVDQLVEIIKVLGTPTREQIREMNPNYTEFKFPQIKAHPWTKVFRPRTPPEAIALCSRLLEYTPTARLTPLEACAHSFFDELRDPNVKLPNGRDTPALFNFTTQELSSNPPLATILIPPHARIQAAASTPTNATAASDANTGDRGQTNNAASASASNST

[3] = target: T1, Tyrosine-protein kinase ITK/TSK (Homo sapiens, UniProt Q08881); assay: Inhibition of recombinant full length human GST-tagged ITK expressed in baculovirus expression system
T1 sequence (Q08881 whole entry): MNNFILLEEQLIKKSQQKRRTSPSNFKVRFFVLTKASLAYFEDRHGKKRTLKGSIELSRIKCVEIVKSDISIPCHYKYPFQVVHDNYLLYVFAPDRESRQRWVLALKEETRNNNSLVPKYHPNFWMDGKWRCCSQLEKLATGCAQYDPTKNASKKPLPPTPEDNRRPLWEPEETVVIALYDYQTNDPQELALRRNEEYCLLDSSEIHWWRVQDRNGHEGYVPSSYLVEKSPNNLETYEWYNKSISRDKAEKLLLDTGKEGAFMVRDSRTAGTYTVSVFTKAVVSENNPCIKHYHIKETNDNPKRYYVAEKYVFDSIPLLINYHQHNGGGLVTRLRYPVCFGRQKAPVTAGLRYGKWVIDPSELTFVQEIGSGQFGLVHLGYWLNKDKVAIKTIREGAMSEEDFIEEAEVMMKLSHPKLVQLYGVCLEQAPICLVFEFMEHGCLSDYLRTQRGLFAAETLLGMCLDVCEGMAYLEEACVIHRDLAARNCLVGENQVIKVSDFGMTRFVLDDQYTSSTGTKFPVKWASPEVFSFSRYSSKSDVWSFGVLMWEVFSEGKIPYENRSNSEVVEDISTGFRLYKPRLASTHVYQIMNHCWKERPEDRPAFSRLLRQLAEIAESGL

[4] = target: MAP kinase p38 (Homo sapiens, UniProt O15264+Q15759+Q16539+P53778); assay: Inhibition of MAPK p38 (unknown origin)
[5] = target: T2, CYP1A2 (Homo sapiens, UniProt P05177); assay: Inhibition of CYP1A2 (unknown origin) at 10 uM relative to control; format: ADME
T2 sequence (P05177 whole entry): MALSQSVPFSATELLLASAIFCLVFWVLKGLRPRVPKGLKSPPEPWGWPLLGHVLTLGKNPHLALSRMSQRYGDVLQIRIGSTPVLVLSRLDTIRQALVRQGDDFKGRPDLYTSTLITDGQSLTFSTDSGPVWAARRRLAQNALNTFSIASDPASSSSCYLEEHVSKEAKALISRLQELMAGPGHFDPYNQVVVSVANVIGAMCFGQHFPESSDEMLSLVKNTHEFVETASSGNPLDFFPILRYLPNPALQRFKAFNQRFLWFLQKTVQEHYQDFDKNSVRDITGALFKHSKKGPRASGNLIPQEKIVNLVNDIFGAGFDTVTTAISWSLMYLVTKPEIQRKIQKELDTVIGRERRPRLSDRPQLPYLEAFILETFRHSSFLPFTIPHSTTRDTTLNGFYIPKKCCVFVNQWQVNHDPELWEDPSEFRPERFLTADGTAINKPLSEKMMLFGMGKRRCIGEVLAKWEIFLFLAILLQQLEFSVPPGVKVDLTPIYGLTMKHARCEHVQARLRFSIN

[6] = target: Macrophage-stimulating protein receptor (Homo sapiens, UniProt Q04912); assay: Inhibition of recombinant human GST-tagged RON cytoplasmic domain expressed in baculovirus expression system
Sequence of Macrophage-stimulating protein receptor (Q04912 25-304 limits assumed): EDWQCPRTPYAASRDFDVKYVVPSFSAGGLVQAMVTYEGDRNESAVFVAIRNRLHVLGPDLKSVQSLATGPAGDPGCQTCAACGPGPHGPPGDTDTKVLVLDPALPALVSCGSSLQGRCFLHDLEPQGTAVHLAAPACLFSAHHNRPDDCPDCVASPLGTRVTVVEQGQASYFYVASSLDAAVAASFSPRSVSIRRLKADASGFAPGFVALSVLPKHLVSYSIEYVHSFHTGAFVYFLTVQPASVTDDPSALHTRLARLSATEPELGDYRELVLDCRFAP
Sequence of Macrophage-stimulating protein receptor (Q04912 310-1400 limits assumed): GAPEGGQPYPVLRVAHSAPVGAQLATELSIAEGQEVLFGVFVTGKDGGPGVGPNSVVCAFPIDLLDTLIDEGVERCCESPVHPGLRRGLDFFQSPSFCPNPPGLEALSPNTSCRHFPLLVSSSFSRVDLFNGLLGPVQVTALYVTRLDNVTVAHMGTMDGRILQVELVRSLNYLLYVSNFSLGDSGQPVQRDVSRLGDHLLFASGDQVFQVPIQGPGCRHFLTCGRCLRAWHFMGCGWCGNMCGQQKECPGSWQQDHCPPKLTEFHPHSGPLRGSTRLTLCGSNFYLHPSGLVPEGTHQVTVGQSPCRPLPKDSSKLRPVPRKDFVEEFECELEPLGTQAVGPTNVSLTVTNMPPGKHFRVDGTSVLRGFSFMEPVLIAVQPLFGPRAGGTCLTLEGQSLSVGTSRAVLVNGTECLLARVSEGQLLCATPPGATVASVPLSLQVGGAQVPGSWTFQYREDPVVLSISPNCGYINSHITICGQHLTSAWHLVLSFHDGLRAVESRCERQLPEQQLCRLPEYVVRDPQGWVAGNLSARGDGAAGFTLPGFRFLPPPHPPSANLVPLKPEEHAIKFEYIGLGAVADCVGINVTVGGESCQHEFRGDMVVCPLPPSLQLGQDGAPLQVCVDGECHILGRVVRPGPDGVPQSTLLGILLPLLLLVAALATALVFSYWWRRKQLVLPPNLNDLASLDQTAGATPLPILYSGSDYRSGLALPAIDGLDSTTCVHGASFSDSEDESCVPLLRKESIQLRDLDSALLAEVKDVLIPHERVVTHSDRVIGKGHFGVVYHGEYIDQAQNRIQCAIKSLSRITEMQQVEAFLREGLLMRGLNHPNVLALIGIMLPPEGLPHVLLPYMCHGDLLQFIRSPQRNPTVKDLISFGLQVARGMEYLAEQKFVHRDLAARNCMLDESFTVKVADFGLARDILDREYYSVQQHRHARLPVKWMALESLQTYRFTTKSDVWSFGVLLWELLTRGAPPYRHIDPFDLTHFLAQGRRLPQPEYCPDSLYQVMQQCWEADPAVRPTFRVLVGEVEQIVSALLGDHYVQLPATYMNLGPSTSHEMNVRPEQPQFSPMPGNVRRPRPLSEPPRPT

[7] = target: Rho-associated protein kinase 1 (Homo sapiens, UniProt Q13464); assay: Inhibition of recombinant human GST-tagged ROCK1 catalytic domain expressed in baculovirus expression system
Sequence of Rho-associated protein kinase 1 (Q13464 whole entry, the tested form may be a part): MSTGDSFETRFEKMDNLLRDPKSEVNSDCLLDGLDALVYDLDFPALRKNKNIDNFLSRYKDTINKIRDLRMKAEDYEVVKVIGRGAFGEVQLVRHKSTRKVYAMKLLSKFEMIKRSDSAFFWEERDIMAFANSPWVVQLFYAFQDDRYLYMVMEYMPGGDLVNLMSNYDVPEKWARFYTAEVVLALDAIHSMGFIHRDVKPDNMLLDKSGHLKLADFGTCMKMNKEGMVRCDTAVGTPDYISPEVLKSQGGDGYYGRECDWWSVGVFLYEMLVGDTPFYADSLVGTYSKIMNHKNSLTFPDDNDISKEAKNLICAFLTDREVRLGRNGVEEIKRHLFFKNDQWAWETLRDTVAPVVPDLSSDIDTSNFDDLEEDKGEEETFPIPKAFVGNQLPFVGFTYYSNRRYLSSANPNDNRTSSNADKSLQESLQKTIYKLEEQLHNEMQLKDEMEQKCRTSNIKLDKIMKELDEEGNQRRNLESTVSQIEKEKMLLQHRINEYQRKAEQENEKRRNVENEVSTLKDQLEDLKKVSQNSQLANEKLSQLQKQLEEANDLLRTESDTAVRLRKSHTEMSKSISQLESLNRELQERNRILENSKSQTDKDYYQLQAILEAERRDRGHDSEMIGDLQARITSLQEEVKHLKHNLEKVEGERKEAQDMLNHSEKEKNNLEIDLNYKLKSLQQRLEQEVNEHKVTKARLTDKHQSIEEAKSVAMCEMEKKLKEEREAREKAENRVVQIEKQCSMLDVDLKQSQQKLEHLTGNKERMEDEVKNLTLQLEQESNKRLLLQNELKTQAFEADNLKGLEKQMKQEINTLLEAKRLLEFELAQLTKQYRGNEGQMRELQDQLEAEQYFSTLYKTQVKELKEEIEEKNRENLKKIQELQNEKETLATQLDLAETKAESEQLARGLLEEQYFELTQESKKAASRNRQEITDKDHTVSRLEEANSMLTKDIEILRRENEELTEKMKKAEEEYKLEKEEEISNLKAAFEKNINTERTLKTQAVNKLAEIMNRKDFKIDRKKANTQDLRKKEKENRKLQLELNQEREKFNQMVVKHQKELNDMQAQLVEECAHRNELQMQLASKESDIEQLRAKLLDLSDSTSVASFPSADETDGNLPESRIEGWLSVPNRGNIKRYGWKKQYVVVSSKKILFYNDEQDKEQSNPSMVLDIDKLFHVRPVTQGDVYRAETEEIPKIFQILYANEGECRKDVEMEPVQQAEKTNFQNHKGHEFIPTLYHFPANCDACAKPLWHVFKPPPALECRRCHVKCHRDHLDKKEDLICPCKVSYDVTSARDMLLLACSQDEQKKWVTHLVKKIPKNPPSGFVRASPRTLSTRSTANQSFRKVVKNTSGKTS

[8] = Thermodynamic solubility of the compound in pH 6.8 solution; format: physicochemical; conditions: read-out: Therm_solubility
[9] = target: CYP3A4 (Homo sapiens, UniProt P08684); assay: Inhibition of CYP3A4 (unknown origin) at 10 uM relative to control; format: ADME
Sequence of CYP3A4 (P08684 whole entry, the tested form may be a part): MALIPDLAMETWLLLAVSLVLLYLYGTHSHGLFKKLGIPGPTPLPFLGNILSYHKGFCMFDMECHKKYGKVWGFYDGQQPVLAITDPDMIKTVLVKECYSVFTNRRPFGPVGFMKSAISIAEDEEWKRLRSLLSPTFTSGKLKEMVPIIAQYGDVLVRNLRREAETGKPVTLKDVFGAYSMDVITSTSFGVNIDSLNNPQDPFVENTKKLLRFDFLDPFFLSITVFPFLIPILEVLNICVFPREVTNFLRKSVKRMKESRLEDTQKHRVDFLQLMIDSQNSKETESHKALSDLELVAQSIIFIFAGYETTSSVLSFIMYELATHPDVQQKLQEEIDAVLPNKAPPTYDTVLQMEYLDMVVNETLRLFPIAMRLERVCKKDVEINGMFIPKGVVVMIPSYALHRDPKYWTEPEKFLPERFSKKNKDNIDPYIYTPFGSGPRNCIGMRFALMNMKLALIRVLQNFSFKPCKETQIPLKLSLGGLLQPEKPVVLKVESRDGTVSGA

[10] = target: Proto-oncogene tyrosine-protein kinase receptor Ret (Homo sapiens, UniProt P07949); assay: Inhibition of recombinant human GST-tagged RET cytoplasmic domain expressed in baculovirus expression system
Sequence of Proto-oncogene tyrosine-protein kinase receptor Ret (P07949 whole entry, the tested form may be a part): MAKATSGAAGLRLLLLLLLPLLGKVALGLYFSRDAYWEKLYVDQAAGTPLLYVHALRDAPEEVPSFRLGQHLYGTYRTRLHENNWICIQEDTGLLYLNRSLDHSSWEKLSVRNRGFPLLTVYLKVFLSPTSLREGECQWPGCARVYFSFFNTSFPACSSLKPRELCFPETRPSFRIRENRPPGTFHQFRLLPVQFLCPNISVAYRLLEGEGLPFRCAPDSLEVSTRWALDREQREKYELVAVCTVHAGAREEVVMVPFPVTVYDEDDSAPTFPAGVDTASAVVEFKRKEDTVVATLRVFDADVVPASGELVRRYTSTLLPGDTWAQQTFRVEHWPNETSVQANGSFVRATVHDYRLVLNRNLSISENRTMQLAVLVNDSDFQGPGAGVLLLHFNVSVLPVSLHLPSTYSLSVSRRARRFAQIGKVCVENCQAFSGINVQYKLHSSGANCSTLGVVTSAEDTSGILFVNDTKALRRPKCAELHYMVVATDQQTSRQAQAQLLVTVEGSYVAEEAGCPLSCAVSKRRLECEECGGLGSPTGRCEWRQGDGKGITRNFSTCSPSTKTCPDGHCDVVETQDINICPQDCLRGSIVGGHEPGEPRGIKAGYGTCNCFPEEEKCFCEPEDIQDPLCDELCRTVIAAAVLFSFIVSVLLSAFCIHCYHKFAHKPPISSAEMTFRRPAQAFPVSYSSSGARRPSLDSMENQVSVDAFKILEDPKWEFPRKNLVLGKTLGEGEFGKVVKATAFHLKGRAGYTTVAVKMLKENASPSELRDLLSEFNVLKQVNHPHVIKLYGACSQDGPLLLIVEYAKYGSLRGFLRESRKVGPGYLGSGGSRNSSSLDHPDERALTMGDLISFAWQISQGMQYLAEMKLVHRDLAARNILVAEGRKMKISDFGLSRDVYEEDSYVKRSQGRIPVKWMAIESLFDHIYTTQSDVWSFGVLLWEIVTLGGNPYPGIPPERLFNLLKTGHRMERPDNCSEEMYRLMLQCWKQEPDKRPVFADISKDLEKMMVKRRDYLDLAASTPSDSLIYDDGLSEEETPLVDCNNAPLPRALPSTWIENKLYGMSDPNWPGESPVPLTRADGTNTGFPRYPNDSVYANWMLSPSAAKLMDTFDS

[11] = target: Cyclin-dependent kinase 2 (Homo sapiens, UniProt P24941); assay: Inhibition of CDK2 (unknown origin)

IC50 [1]: > 20 µM | IC50 [2]: 0.457 µM | IC50 [3]: > 20 µM | pIC50 [4]: < 4.7 | inhibition at 10 µM [5]: 8% | IC50 [6]: > 20 µM | IC50 [7]: 5.37 µM | solubility thermodynamic [8]: 208 µM (≈ 75.2 µg/mL) | inhibition at 10 µM [9]: 30% | IC50 [10]: 0.617 µM | IC50 [11]: 1 µM
SMILES: COCCn1cc(NC(=O)c2csc(-c3nncn3C(C)C)n2)cn1
